Some test systems named below: CAKI-1; UACC-62; EKVX; KM12; SF-295; HCT-116; OVCAR-4; HCC 2998; MOLT-4; HT-29; K562; SF-539; SF-268; SN12C; NCI-H23; SK-OV-3; SK-MEL-28; SNB-19; UACC-257; NCI-H522.
Common to all, as to test: growth of human tumour cells (NCI), 48 h

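Briefly, cells in 96-well plates were exposed to five compound concentrations for 48 h, and endpoints were estimated by linear interpolation. Abbreviation: GI50, concentration required for 50% inhibition of growth.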 Active and inactive are the calls of the source. Rule as the data show it: active = GI50 up to about 1.1 µM and inactive = higher.

As to `Cc1cc(C)c(S(=O)(=O)N(CCCN)OCCCN)c(C)c1`, the GI50 with CAKI-1, in the experiment with UACC-62, with EKVX, with KM12, in the experiment on SF-295 and in the experiment with HCT-116 was > 100 µM (inactive) each time. The GI50 with OVCAR-4, in the experiment on HCC 2998, in the experiment with MOLT-4, in the experiment on HT-29, in the experiment on K562 and in the experiment with SF-539 was > 100 µM (inactive) in each case. In addition, the GI50 with SF-268, with SN12C, in the experiment on NCI-H23, in the experiment on SK-OV-3, in the experiment on SK-MEL-28 and with SNB-19 was > 100 µM (inactive) each time. Also, the GI50 in the experiment on UACC-257 was > 100 µM (inactive).
In the case of `COc1ccc(/C(C)=N/NC(=S)N(C)C)c(O)c1`, the GI50 with CAKI-1 is 4.92 µM (inactive); in the experiment on UACC-62, 4.35 µM (inactive); with EKVX it was 5.41 µM (inactive); in the experiment with KM12 it was 4.92 µM (inactive); in the experiment with SF-295 it was 4.05 µM (inactive); with HCT-116, 6.95 µM (inactive). Further, the GI50 in the experiment on OVCAR-4 is 2.32 µM (inactive); in the experiment on HCC 2998, 24.6 µM (inactive); in the experiment with MOLT-4, 4.57 µM (inactive); with HT-29, 3.8 µM (inactive); in the experiment with SF-268, 12 µM (inactive); in the experiment on SN12C, 11.7 µM (inactive). Besides, the GI50 in the experiment on NCI-H522 was 12.9 µM (inactive); with NCI-H23, 8.11 µM (inactive); with SK-OV-3 it was 3.84 µM (inactive); in the experiment on SK-MEL-28 it was 16.6 µM (inactive); in the experiment on SNB-19, 22 µM (inactive); in the experiment with UACC-257, 20.9 µM (inactive).
Regarding `CCC(=O)NC(Nc1ccccc1F)(C(F)(F)F)C(F)(F)F`, the GI50 was > 100 µM (inactive) in the experiment on CAKI-1; 40.6 µM (inactive) in the experiment on UACC-62; > 100 µM (inactive) with EKVX; > 100 µM (inactive) with KM12; > 100 µM (inactive) in the experiment with SF-295; > 100 µM (inactive) in the experiment on HCT-116. Besides, the GI50 with OVCAR-4, in the experiment with HCC 2998, with MOLT-4, in the experiment on HT-29, in the experiment on K562 and with SF-539 was > 100 µM (inactive) each time. Further, the GI50 with SF-268, with SN12C, in the experiment with NCI-H522, in the experiment with NCI-H23, in the experiment with SK-OV-3 and in the experiment with SK-MEL-28 was > 100 µM (inactive) throughout. Moreover, the GI50 with SNB-19 and in the experiment on UACC-257 was > 100 µM (inactive) each time.
Consider `CC(=O)OCc1cc(=O)n(C)c2c3c4c(cc12)c(C)cc(=O)n4CO3`, for which the GI50 is 1.95 µM (inactive) in the experiment with CAKI-1; 1.34 µM (inactive) with UACC-62; 2.44 µM (inactive) in the experiment on EKVX; 1.23 µM (inactive) with KM12; 1.57 µM (inactive) with SF-295; 0.367 µM (active) with HCT-116. The GI50 was 1.42 µM (inactive) in the experiment with OVCAR-4; 1.52 µM (inactive) with HCC 2998; 0.478 µM (active) with MOLT-4; 1.49 µM (inactive) in the experiment with HT-29; 1.14 µM (inactive) in the experiment with K562; 1.03 µM (active) with SF-539. Besides, the GI50 with SF-268 is 0.782 µM (active); with SN12C, 1.66 µM (inactive); with NCI-H522 it was 0.711 µM (active); in the experiment with NCI-H23 it was 1.68 µM (inactive); in the experiment on SK-OV-3 it was 3.56 µM (inactive); in the experiment on SK-MEL-28, 1.64 µM (inactive). Moreover, the GI50 is 1.61 µM (inactive) in the experiment with SNB-19 and 2.05 µM (inactive) in the experiment with UACC-257.
In the case of `C1=Nc2ccccc2Cn2nncc21`, the GI50 in the experiment on CAKI-1 is 29.9 µM (inactive); in the experiment with UACC-62 it was 23 µM (inactive); in the experiment on EKVX, 98.2 µM (inactive); in the experiment with KM12 it was 47.1 µM (inactive); with HCT-116, 35.7 µM (inactive); in the experiment with OVCAR-4, > 100 µM (inactive). The GI50 with HCC 2998 was 99.5 µM (inactive); in the experiment with MOLT-4, > 100 µM (inactive); with HT-29, 45.6 µM (inactive); with K562, 35.2 µM (inactive); in the experiment with SF-539, 28.6 µM (inactive); with SF-268, > 100 µM (inactive). Further, the GI50 is > 100 µM (inactive) in the experiment with SN12C; 32.7 µM (inactive) in the experiment with NCI-H522; > 100 µM (inactive) in the experiment with NCI-H23; > 100 µM (inactive) with SK-OV-3; 80.7 µM (inactive) in the experiment with SK-MEL-28; > 100 µM (inactive) with SNB-19.
For `CCCCC1(C2c3ccccc3Oc3ccccc32)C(=O)N(c2ccccc2)N(c2ccccc2)C1=O`, the GI50 was 11.6 µM (inactive) in the experiment on CAKI-1; > 89.3 µM (inactive) in the experiment with UACC-62; > 100 µM (inactive) in the experiment with EKVX; 63.5 µM (inactive) with KM12; > 92.7 µM (inactive) with SF-295; 41.3 µM (inactive) in the experiment on HCT-116. The GI50 with OVCAR-4 was 60.1 µM (inactive); in the experiment on HCC 2998 it was > 41.1 µM (inactive); with MOLT-4, > 10 µM (inactive); in the experiment on HT-29, 77.1 µM (inactive); with K562, 18.9 µM (inactive); with SF-539, > 100 µM (inactive). The GI50 in the experiment with SF-268 is > 79.1 µM (inactive); in the experiment on SN12C, > 61.9 µM (inactive); with NCI-H522 it was 3.79 µM (inactive); in the experiment with NCI-H23 it was 32.1 µM (inactive); with SK-OV-3 it was > 100 µM (inactive); in the experiment with SK-MEL-28, > 100 µM (inactive). The GI50 is 82 µM (inactive) in the experiment with SNB-19 and 29.4 µM (inactive) with UACC-257.
As to `Cn1c(/C=C/CO)c(CO)c2c1C(=O)C=C(N1CC1)C2=O` [APAZIQUONE], the GI50 in the experiment with CAKI-1 was < 0.01 µM (active); in the experiment on UACC-62, < 0.01 µM (active); in the experiment on EKVX it was 0.0463 µM (active); in the experiment with KM12, < 0.01 µM (active); in the experiment on SF-295, < 0.01 µM (active); in the experiment with HCT-116 it was 0.0109 µM (active). Moreover, the GI50 was 0.0516 µM (active) with OVCAR-4; < 0.01 µM (active) in the experiment on HCC 2998; 0.299 µM (active) with MOLT-4; < 0.01 µM (active) in the experiment with HT-29; 0.0195 µM (active) in the experiment with K562; < 0.01 µM (active) in the experiment on SF-539. Further, the GI50 with SF-268 was 0.0137 µM (active); in the experiment with SN12C, < 0.01 µM (active); in the experiment on NCI-H522, 0.0102 µM (active); in the experiment with SK-OV-3 it was < 0.0134 µM (active); in the experiment with SK-MEL-28, 0.0198 µM (active); in the experiment on SNB-19 it was < 0.01 µM (active). Further, the GI50 in the experiment with UACC-257 was < 0.01 µM (active).

Source of the values: ChEMBL document CHEMBL1201862, “PubChem BioAssay data set” (2004).
